Assay results from patent publication US20210045385A1, “PYRIDAZINONE-SUBSTITUTED KETOXIMES AS HERBICIDES” (FMC Corporation, priority 2018, published 2021).

Key:
Type in all cases: in vivo
[1] = tested on: duck salad (Heteranthera limosa); assay: Test D flooded paddy test, visual plant response rating; conditions: 250 g ai/ha, scale 0 to 100 (0 no effect, 100 complete control), 13 to 15 d
Summary of the method: (§1)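 Rating is visual, on a 0 (no effect) to 100 (complete control) scale versus controls, taken 13 to 15 d after treatment in a greenhouse. Treatment went into paddy water kept 3 cm above the soil surface, with plants at the 2-leaf stage.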

[2] = tested on: rice (Oryza sativa); assay: as above; conditions: 250 g ai/ha, scale 0 to 100 (0 no effect, 100 complete control), 13 to 15 d
Summary of the method: as §1

[3] = tested on: sedge umbrella (small-flower umbrella sedge, Cyperus difformis); assay: as above; conditions: 250 g ai/ha, scale 0 to 100 (0 no effect, 100 complete control), 13 to 15 d
Summary of the method: as §1

[4] = tested on: barnyardgrass (Echinochloa crus-galli); assay: as above; conditions: 250 g ai/ha, scale 0 to 100 (0 no effect, 100 complete control), 13 to 15 d
Summary of the method: as §1

[5] = tested on: foxtail, giant (giant foxtail, Setaria faberi); assay: Test C preemergence, visual plant response rating; conditions: Test C, 0 is no effect, 100 is complete control
Summary of the method: (§2)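 Visual injury on a 0 (no effect) to 100 (complete control) scale versus untreated controls, scored approximately 10 d after treatment under greenhouse conditions. Treatments used surfactant-containing non-phytotoxic solvent formulations, sprayed onto loam–sand soil preemergence or onto one- to two-leaf plants 2–10 cm tall postemergence.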

[6] = tested on: Italian ryegrass (Lolium mutiflorum); assay: Test C preemergence, visual plant response rating; conditions: Test C, 0 is no effect, 100 is complete control
Summary of the method: as §2

[7] = tested on: kochia (Bassia scoparia); assay: Test C preemergence, visual plant response rating; conditions: Test C, 0 is no effect, 100 is complete control
Summary of the method: as §2

[8] = tested on: pigweed (Amaranthus retroflexus); assay: Test C preemergence, visual plant response rating; conditions: Test C, 0 is no effect, 100 is complete control
Summary of the method: as §2

[9] = tested on: barnyardgrass (Echinochloa crus-galli); assay: Test C preemergence, visual plant response rating; conditions: Test C, 0 is no effect, 100 is complete control
Summary of the method: as §2

[10] = tested on: ragweed (common ragweed, Ambrosia artemisiifolia); assay: Test C preemergence, visual plant response rating; conditions: Test C, 0 is no effect, 100 is complete control
Summary of the method: as §2

[11] = tested on: foxtail, giant (giant foxtail, Setaria faberi); assay: Test C postemergence, visual plant response rating
Summary of the method: as §2

[12] = tested on: galium (catchweed bedstraw, Galium aparine); assay: Test C postemergence, visual plant response rating
Summary of the method: as §2

[13] = tested on: Italian ryegrass (Lolium mutiflorum); assay: Test C postemergence, visual plant response rating
Summary of the method: as §2

[14] = tested on: wheat (Triticum aestivum); assay: Test C postemergence, visual plant response rating
Summary of the method: as §2

[15] = tested on: kochia (Bassia scoparia); assay: Test C postemergence, visual plant response rating
Summary of the method: as §2

[16] = tested on: pigweed (Amaranthus retroflexus); assay: Test C postemergence, visual plant response rating
Summary of the method: as §2

[17] = tested on: corn (Zea mays); assay: Test C postemergence, visual plant response rating
Summary of the method: as §2

[18] = tested on: barnyardgrass (Echinochloa crus-galli); assay: Test C postemergence, visual plant response rating
Summary of the method: as §2

[19] = tested on: blackgrass (Alopecurus myosuroides); assay: Test C postemergence, visual plant response rating
Summary of the method: as §2

[20] = tested on: ragweed (common ragweed, Ambrosia artemisiifolia); assay: Test C postemergence, visual plant response rating
Summary of the method: as §2

[21] = Test C, postemergence, 125 g ai/ha

| SMILES | Plant response rating, Ducksalad (Flood) [1] | Plant response rating, Rice (Flood) [2] | Plant response rating, Sedge, Umbrella (Flood) [3] | Plant response rating, Barnyardgrass (Flood) [4] | Foxtail, Giant plant response rating (0 to 100 scale) ([5]; 31 g ai/ha) | Foxtail, Giant plant response rating (0 to 100 scale) ([5]; 125 g ai/ha) | Ryegrass, Italian plant response rating (0 to 100 scale) ([6]; 31 g ai/ha) | Ryegrass, Italian plant response rating (0 to 100 scale) ([6]; 125 g ai/ha) | Kochia plant response rating (0 to 100 scale) ([7]; 31 g ai/ha) | Kochia plant response rating (0 to 100 scale) ([7]; 125 g ai/ha) | Pigweed plant response rating (0 to 100 scale) ([8]; 31 g ai/ha) | Pigweed plant response rating (0 to 100 scale) ([8]; 125 g ai/ha) | Barnyardgrass plant response rating (0 to 100 scale) ([9]; 31 g ai/ha) | Barnyardgrass plant response rating (0 to 100 scale) ([9]; 125 g ai/ha) | Ragweed plant response rating (0 to 100 scale) ([10]; 31 g ai/ha) | Ragweed plant response rating (0 to 100 scale) ([10]; 125 g ai/ha) | Foxtail, Giant plant response rating (0 to 100 scale) ([11]; Postemergence, 31 g ai/ha) | Foxtail, Giant plant response rating (0 to 100 scale) [11, 21] | Galium plant response rating (0 to 100 scale) ([12]; Postemergence, 31 g ai/ha) | Galium plant response rating (0 to 100 scale) [12, 21] | other results |
| --- | --- | --- | --- | --- | --- | --- | --- | --- | --- | --- | --- | --- | --- | --- | --- | --- | --- | --- | --- | --- | --- |
| CON=C(c1cc(Cl)cc(Cl)c1F)c1c(O)c(C)nn(C)c1=O [Compound 299] | 80 | 45 | 90 | 85 | 100 | 100 | 100 | 100 | 90 | 100 | 100 | 100 | 90 | 100 | 90 | 100 | 90 | 100 | 100 | 100 | Ryegrass, Italian plant response rating (0 to 100 scale) ([13]; Postemergence, 31 g ai/ha): 100; Ryegrass, Italian plant response rating (0 to 100 scale) [13, 21]: 100; Wheat plant response rating (0 to 100 scale) ([14]; Postemergence, 31 g ai/ha): 30; Wheat plant response rating (0 to 100 scale) [14, 21]: 70; Kochia plant response rating (0 to 100 scale) ([15]; Postemergence, 31 g ai/ha): 100; Kochia plant response rating (0 to 100 scale) [15, 21]: 100; Pigweed plant response rating (0 to 100 scale) ([16]; Postemergence, 31 g ai/ha): 90; Pigweed plant response rating (0 to 100 scale) [16, 21]: 100; Corn plant response rating (0 to 100 scale) ([17]; Postemergence, 31 g ai/ha): 10; Corn plant response rating (0 to 100 scale) [17, 21]: 30; Barnyardgrass plant response rating (0 to 100 scale) ([18]; Postemergence, 31 g ai/ha): 70; Barnyardgrass plant response rating (0 to 100 scale) [18, 21]: 90; Blackgrass plant response rating (0 to 100 scale) ([19]; Postemergence, 31 g ai/ha): 80; Blackgrass plant response rating (0 to 100 scale) [19, 21]: 80; Ragweed plant response rating (0 to 100 scale) ([20]; Postemergence, 31 g ai/ha): 100; Ragweed plant response rating (0 to 100 scale) [20, 21]: 100 |
| CO/N=C(\c1c(O)c(C)nn(C)c1=O)c1cccc2cc(Cl)ccc12 [Compound 300] | 55 | 20 | 45 | 15 | 40 | 80 | 10 | 70 | 0 | 30 | 30 | 90 | 40 | 60 | 0 | 20 | 60 | 80 | 90 | 100 | Ryegrass, Italian plant response rating (0 to 100 scale) ([13]; Postemergence, 31 g ai/ha): 10; Ryegrass, Italian plant response rating (0 to 100 scale) [13, 21]: 40; Wheat plant response rating (0 to 100 scale) ([14]; Postemergence, 31 g ai/ha): 0; Wheat plant response rating (0 to 100 scale) [14, 21]: 0; Kochia plant response rating (0 to 100 scale) ([15]; Postemergence, 31 g ai/ha): 40; Kochia plant response rating (0 to 100 scale) [15, 21]: 50; Pigweed plant response rating (0 to 100 scale) ([16]; Postemergence, 31 g ai/ha): 80; Pigweed plant response rating (0 to 100 scale) [16, 21]: 80; Corn plant response rating (0 to 100 scale) ([17]; Postemergence, 31 g ai/ha): 10; Corn plant response rating (0 to 100 scale) [17, 21]: 30; Barnyardgrass plant response rating (0 to 100 scale) ([18]; Postemergence, 31 g ai/ha): 30; Barnyardgrass plant response rating (0 to 100 scale) [18, 21]: 70; Blackgrass plant response rating (0 to 100 scale) ([19]; Postemergence, 31 g ai/ha): 30; Blackgrass plant response rating (0 to 100 scale) [19, 21]: 80; Ragweed plant response rating (0 to 100 scale) ([20]; Postemergence, 31 g ai/ha): 30; Ragweed plant response rating (0 to 100 scale) [20, 21]: 90 |
| CO/N=C(/c1c(O)c(C)nn(C)c1=O)c1cccc2cc(Cl)ccc12 [Compound 301] | 0 | 0 | 0 | 0 | 20 | 80 | 0 | 30 | 0 | 0 | 0 | 20 | 0 | 40 | 0 | 0 | 40 | 70 | 70 | 90 | Ryegrass, Italian plant response rating (0 to 100 scale) ([13]; Postemergence, 31 g ai/ha): 0; Ryegrass, Italian plant response rating (0 to 100 scale) [13, 21]: 10; Wheat plant response rating (0 to 100 scale) ([14]; Postemergence, 31 g ai/ha): 0; Wheat plant response rating (0 to 100 scale) [14, 21]: 0; Kochia plant response rating (0 to 100 scale) ([15]; Postemergence, 31 g ai/ha): 0; Kochia plant response rating (0 to 100 scale) [15, 21]: 30; Pigweed plant response rating (0 to 100 scale) ([16]; Postemergence, 31 g ai/ha): 50; Pigweed plant response rating (0 to 100 scale) [16, 21]: 70; Corn plant response rating (0 to 100 scale) ([17]; Postemergence, 31 g ai/ha): 0; Corn plant response rating (0 to 100 scale) [17, 21]: 20; Barnyardgrass plant response rating (0 to 100 scale) ([18]; Postemergence, 31 g ai/ha): 20; Barnyardgrass plant response rating (0 to 100 scale) [18, 21]: 40; Blackgrass plant response rating (0 to 100 scale) ([19]; Postemergence, 31 g ai/ha): 0; Blackgrass plant response rating (0 to 100 scale) [19, 21]: 60; Ragweed plant response rating (0 to 100 scale) ([20]; Postemergence, 31 g ai/ha): 10; Ragweed plant response rating (0 to 100 scale) [20, 21]: 30 |
| CC(C)O/N=C(/c1c(O)cnn(C)c1=O)c1ccc(F)c2ccccc12 [Compound 302] | 0 | 0 | 0 | 0 | 0 | 10 | 0 | 0 | 0 | 0 | 10 | 40 | 0 | 0 | 0 | 20 | 10 | 30 | 20 | 60 | Ryegrass, Italian plant response rating (0 to 100 scale) ([13]; Postemergence, 31 g ai/ha): 0; Ryegrass, Italian plant response rating (0 to 100 scale) [13, 21]: 30; Wheat plant response rating (0 to 100 scale) ([14]; Postemergence, 31 g ai/ha): 0; Wheat plant response rating (0 to 100 scale) [14, 21]: 0; Kochia plant response rating (0 to 100 scale) ([15]; Postemergence, 31 g ai/ha): 0; Kochia plant response rating (0 to 100 scale) [15, 21]: 20; Pigweed plant response rating (0 to 100 scale) ([16]; Postemergence, 31 g ai/ha): 30; Pigweed plant response rating (0 to 100 scale) [16, 21]: 60; Corn plant response rating (0 to 100 scale) ([17]; Postemergence, 31 g ai/ha): 0; Corn plant response rating (0 to 100 scale) [17, 21]: 0; Barnyardgrass plant response rating (0 to 100 scale) ([18]; Postemergence, 31 g ai/ha): 0; Barnyardgrass plant response rating (0 to 100 scale) [18, 21]: 0; Blackgrass plant response rating (0 to 100 scale) ([19]; Postemergence, 31 g ai/ha): 0; Blackgrass plant response rating (0 to 100 scale) [19, 21]: 0; Ragweed plant response rating (0 to 100 scale) ([20]; Postemergence, 31 g ai/ha): 0; Ragweed plant response rating (0 to 100 scale) [20, 21]: 20 |
